Seven molecules from publication PMC10387993, “New pyrimidine-N-β-D-glucosides: synthesis, biological evaluation, and molecular docking investigations” (Turkish Journal of Chemistry, 2023) can be followed below.

Each structure is given as a SMILES string.

Common to all, as to assay type: cell-based
Series [1] in a line: LDH cytotoxic activity assay, HeLa. The conditions noted are these: human, HeLa cells. The procedure: (§1) The cell lines were cultured in a cell medium (Dulbecco’s modified eagle’s or RPMI 1640) enriched with 10% (v/v) fetal bovine serum and 2% (v/v) Penicillin-Streptomycin (10,000 U/mL). First, old medium was removed out of the flask when the cells reached approximately 80% confluence. Next, cells were taken from the flasks surface using trypsin-EDTA solution and then subjected to centrifugation. Following, the cell pellet was suspended with fresh media and was inoculated into wells.
(§2) Approximately 5 × 10^3 cells in 100 μL were placed into 96-well plates as triplicates and treated with 25, 50, 75, and 100 μg/mL concentrations of test compounds at 37 °C with 5% CO2 for 24 h. LDH activity was obtained by determining absorbance at 492–630 nm using a microplate reader.

The nature of another series: in vitro. The conditions noted are these: human, LC50. A digest of the protocol: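 Cells were seeded at about 1 × 10^4 per well, brought to 200 μL with medium, and assessed by MTT: 4 h with MTT reagent, formazan dissolved in DMSO with Sorenson's buffer, absorbance read at 560 nm (690 nm reference). IC50 derived from percent inhibition relative to DMSO.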
Series [2] can be described thus: LDH cytotoxic activity assay, C6. The conditions noted are these: rat, C6 glioma cells; for cytotoxicity at 24 h, 25 μg/mL: C6, 25 μg/mL; for cytotoxicity at 24 h, 50 μg/mL: C6, 50 μg/mL; for cytotoxicity at 24 h, 75 μg/mL: C6, 75 μg/mL; for cytotoxicity at 24 h, 100 μg/mL: C6, 100 μg/mL. As for the experimental part:
as §1, §2

Series [3] is described as follows: LDH cytotoxic activity assay, HT29. The conditions noted are these: human, HT29 cells; for cytotoxicity at 24 h, 25 μg/mL: HT29, 25 μg/mL; for cytotoxicity at 24 h, 50 μg/mL: HT29, 50 μg/mL; for cytotoxicity at 24 h, 75 μg/mL: HT29, 75 μg/mL; for cytotoxicity at 24 h, 100 μg/mL: HT29, 100 μg/mL. The procedure:
as §1, §2

In the case of `Cc1ccccc1-c1cc(-c2cccnc2)nc(N[C@@H]2O[C@H](CO)[C@@H](O)[C@H](O)[C@H]2O)n1` [Compound 2, N-[4-(2-methylphenyl)-6-pyridin-3-ylpyrimidin-2-yl]-β-D-glucopyranosylamine], in series [1], the cytotoxicity at 24 h, 25 μg/mL was found to be 30.5%; the cytotoxicity at 24 h, 50 μg/mL stood at 47.2%; the cytotoxicity at 24 h, 75 μg/mL was determined as 49.7%; the cytotoxicity at 24 h, 100 μg/mL turned out to be 72.1%. Moreover, the LC50 (concentration causing 50% net cell loss) in the series “in vitro” was more than 500 µg/mL. In series [2], this molecule registered a cytotoxicity at 24 h, 25 μg/mL of 30.8%; a cytotoxicity at 24 h, 50 μg/mL of 49.8%; a cytotoxicity at 24 h, 75 μg/mL of 72.7%; a cytotoxicity at 24 h, 100 μg/mL of 99.8%. Also, in series [3], the cytotoxicity at 24 h, 25 μg/mL was 27.7%; the cytotoxicity at 24 h, 50 μg/mL came out at 44.8%; the cytotoxicity at 24 h, 75 μg/mL amounted to 72.7%; the cytotoxicity at 24 h, 100 μg/mL amounted to 94.6%.

For `Cc1ccccc1-c1cc(-c2ccncc2)nc(N[C@@H]2O[C@H](CO)[C@@H](O)[C@H](O)[C@H]2O)n1` [Compound 3, N-[4-(2-methylphenyl)-6-pyridin-4-ylpyrimidin-2-yl]-β-D-glucopyranosylamine], in series [1], the cytotoxicity at 24 h, 25 μg/mL came out at 16.3%; the cytotoxicity at 24 h, 50 μg/mL was determined as 33.4%; the cytotoxicity at 24 h, 75 μg/mL came out at 40.6%; the cytotoxicity at 24 h, 100 μg/mL was 56.9%. In addition, the LC50 (concentration causing 50% net cell loss) in the series “in vitro” is more than 500 µg/mL. For the same molecule, in series [2], the cytotoxicity at 24 h, 25 μg/mL is 25.3%; the cytotoxicity at 24 h, 50 μg/mL amounted to 32.1%; the cytotoxicity at 24 h, 75 μg/mL stood at 74%; the cytotoxicity at 24 h, 100 μg/mL amounted to 99.7%. In series [3], this molecule showed a cytotoxicity at 24 h, 25 μg/mL of 33.1%; a cytotoxicity at 24 h, 50 μg/mL of 49.9%; a cytotoxicity at 24 h, 75 μg/mL of 71.1%; a cytotoxicity at 24 h, 100 μg/mL of 98.7%.

`CC(=O)OC[C@H]1O[C@@H](Nc2nc(-c3ccccn3)cc(-c3ccccc3C)n2)[C@H](OC(C)=O)[C@@H](OC(C)=O)[C@@H]1OC(C)=O` [Compound 10, 2,3,4,6-tetra-O-acetyl-N-[4-(2-methylphenyl)-6-pyridin-2-ylpyrimidin-2-yl]-β-D-glucopyranosylamine]: in series [1], the cytotoxicity at 24 h, 25 μg/mL turned out to be 16.8%; the cytotoxicity at 24 h, 50 μg/mL turned out to be 40.7%; the cytotoxicity at 24 h, 75 μg/mL was 51.7%; the cytotoxicity at 24 h, 100 μg/mL is 58.4%. In the series “in vitro”, this molecule showed an LC50 (concentration causing 50% net cell loss) of more than 500 µg/mL. In series [2], this molecule returned a cytotoxicity at 24 h, 25 μg/mL of 22.8%; a cytotoxicity at 24 h, 50 μg/mL of 54.3%; a cytotoxicity at 24 h, 75 μg/mL of 77.1%; a cytotoxicity at 24 h, 100 μg/mL of 93.5%. In series [3], this molecule displayed a cytotoxicity at 24 h, 25 μg/mL of 29.4%; a cytotoxicity at 24 h, 50 μg/mL of 51.8%; a cytotoxicity at 24 h, 75 μg/mL of 64.5%; a cytotoxicity at 24 h, 100 μg/mL of 95.2%.

For the molecule `CC(=O)OC[C@H]1O[C@@H](Nc2nc(-c3cccnc3)cc(-c3ccccc3C)n2)[C@H](OC(C)=O)[C@@H](OC(C)=O)[C@@H]1OC(C)=O` [Compound 11, 2,3,4,6-tetra-O-acetyl-N-[4-(2-methylphenyl)-6-pyridin-3-ylpyrimidin-2-yl]-β-D-glucopyranosylamine], in series [1], the cytotoxicity at 24 h, 25 μg/mL was determined as 17.2%; the cytotoxicity at 24 h, 50 μg/mL was determined as 29.8%; the cytotoxicity at 24 h, 75 μg/mL came to 45%; the cytotoxicity at 24 h, 100 μg/mL came to 49.8%. Also, the LC50 (concentration causing 50% net cell loss) in the series “in vitro” was more than 500 µg/mL. In series [2], this molecule gave a cytotoxicity at 24 h, 25 μg/mL of 26.4%; a cytotoxicity at 24 h, 50 μg/mL of 42.2%; a cytotoxicity at 24 h, 75 μg/mL of 77%; a cytotoxicity at 24 h, 100 μg/mL of 84.8%. For the same molecule, in series [3], the cytotoxicity at 24 h, 25 μg/mL was 36.1%; the cytotoxicity at 24 h, 50 μg/mL was 49.3%; the cytotoxicity at 24 h, 75 μg/mL worked out at 63.8%; the cytotoxicity at 24 h, 100 μg/mL came out at 90.6%.

In series [1], `CC(=O)OC[C@H]1O[C@@H](Nc2nc(-c3ccncc3)cc(-c3ccccc3C)n2)[C@H](OC(C)=O)[C@@H](OC(C)=O)[C@@H]1OC(C)=O` [Compound 12, 2,3,4,6-tetra-O-acetyl-N-[4-(2-methylphenyl)-6-pyridin-4-ylpyrimidin-2-yl]-β-D-glucopyranosylamine] came in with a cytotoxicity at 24 h, 25 μg/mL of 18.8%; a cytotoxicity at 24 h, 50 μg/mL of 30.8%; a cytotoxicity at 24 h, 75 μg/mL of 42.6%; a cytotoxicity at 24 h, 100 μg/mL of 49.6%. This molecule registered an LC50 (concentration causing 50% net cell loss) in the series “in vitro” of more than 500 µg/mL. In series [2], this molecule returned a cytotoxicity at 24 h, 25 μg/mL of 21.1%; a cytotoxicity at 24 h, 50 μg/mL of 46.7%; a cytotoxicity at 24 h, 75 μg/mL of 75.2%; a cytotoxicity at 24 h, 100 μg/mL of 87.4%. Moreover, in series [3], the cytotoxicity at 24 h, 25 μg/mL worked out at 30.7%; the cytotoxicity at 24 h, 50 μg/mL was found to be 41.9%; the cytotoxicity at 24 h, 75 μg/mL amounted to 62.6%; the cytotoxicity at 24 h, 100 μg/mL worked out at 77.6%.

Take `CC(=O)OC[C@H]1O[C@@H](Nc2nc(-c3cccc(C)c3)cc(-c3ccccn3)n2)[C@H](OC(C)=O)[C@@H](OC(C)=O)[C@@H]1OC(C)=O` [Compound 13, 2,3,4,6-tetra-O-acetyl-N-[4-(3-methylphenyl)-6-pyridin-2-ylpyrimidin-2-yl]-β-D-glucopyranosylamine]: in series [1], the cytotoxicity at 24 h, 25 μg/mL was found to be 18.1%; the cytotoxicity at 24 h, 50 μg/mL is 28%; the cytotoxicity at 24 h, 75 μg/mL was 42.8%; the cytotoxicity at 24 h, 100 μg/mL turned out to be 50.9%. Besides, the LC50 (concentration causing 50% net cell loss) in the series “in vitro” is more than 500 µg/mL. In series [2], this molecule returned a cytotoxicity at 24 h, 25 μg/mL of 15%; a cytotoxicity at 24 h, 50 μg/mL of 51.2%; a cytotoxicity at 24 h, 75 μg/mL of 77.1%; a cytotoxicity at 24 h, 100 μg/mL of 98.3%. In series [3], this molecule registered a cytotoxicity at 24 h, 25 μg/mL of 31.7%; a cytotoxicity at 24 h, 50 μg/mL of 45.5%; a cytotoxicity at 24 h, 75 μg/mL of 66.4%; a cytotoxicity at 24 h, 100 μg/mL of 79.2%.

In series [1], `CC(=O)OC[C@H]1O[C@@H](Nc2nc(-c3cccnc3)cc(-c3cccc(C)c3)n2)[C@H](OC(C)=O)[C@@H](OC(C)=O)[C@@H]1OC(C)=O` [Compound 14, 2,3,4,6-tetra-O-acetyl-N-[4-(3-methylphenyl)-6-pyridin-3-ylpyrimidin-2-yl]-β-D-glucopyranosylamine] yielded a cytotoxicity at 24 h, 25 μg/mL of 16.6%; a cytotoxicity at 24 h, 50 μg/mL of 28.8%; a cytotoxicity at 24 h, 75 μg/mL of 33.5%; a cytotoxicity at 24 h, 100 μg/mL of 48.8%. The same molecule yielded an LC50 (concentration causing 50% net cell loss) in the series “in vitro” of more than 500 µg/mL. In series [2], this molecule registered a cytotoxicity at 24 h, 25 μg/mL of 18.4%; a cytotoxicity at 24 h, 50 μg/mL of 35.3%; a cytotoxicity at 24 h, 75 μg/mL of 70.2%; a cytotoxicity at 24 h, 100 μg/mL of 86.7%. In series [3], this molecule returned a cytotoxicity at 24 h, 25 μg/mL of 21%; a cytotoxicity at 24 h, 50 μg/mL of 44.6%; a cytotoxicity at 24 h, 75 μg/mL of 61.8%; a cytotoxicity at 24 h, 100 μg/mL of 72.2%.
